This is an account of results in PubChem BioAssay (NCI).

The structures appear in SMILES notation.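 Step 1: Grow cells in 96-well plates. Step 2: Expose to compound for 48 hours at 5 concentrations. Step 3: Interpolate endpoints linearly; if unreached, use highest concentration. GI50 = concentration required for 50% inhibition of growth. TGI: concentration producing complete growth inhibition.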

What all share (test): growth of human tumour cells (NCI), 48 h
Assay [1] concerns HCC-2998 colon.
The subject of assay [2] is HCT-15 colon.
In assay [3] the test system is M14 melanoma.
The test system of assay [4] is MOLT-4 leukemia.
Assay [5] relates to NCI-H522 lung.
In assay [6] the test system is OVCAR-3 ovarian.
Assay [7] relates to OVCAR-4 ovarian.
Assay [8] deals with SF-295 CNS.
In assay [9] the test system is SN12C renal.
In assay [10] the test system is U251 CNS.

For the compound `C=C[C@@H](C)[C@]1(C(=O)OC)CCCC12OCCO2`, the TGI in assay [1], in assay [2], in assay [3], in assay [4], in assay [5] and in [6] was over 100 µM throughout. The TGI in [7], in assay [8], in assay [9] and in [10] was over 100 µM in each case.
On to `CC1Cc2c(Cl)ncnc2N(C)c2ccc(Cl)cc21` (configuration not stated), for which the GI50 is 0.307 µM in [1]; 0.331 µM in [2]; 0.312 µM in assay [3]; 0.382 µM in assay [4]; 0.232 µM in assay [5]; 0.21 µM in assay [6]. The GI50 was 0.422 µM in [7], 0.341 µM in assay [8], 0.411 µM in assay [9] and 0.378 µM in [10]. The TGI in assay [1] is 58.1 µM; in [2], over 100 µM; in assay [3], 29.7 µM; in assay [4] it was over 100 µM; in assay [5], 0.776 µM; in [6], 0.477 µM. Further, the TGI in assay [7] is over 100 µM; in assay [8], over 100 µM; in [9], 19.3 µM; in [10], over 100 µM.
With `Nc1nc(/C=C\c2ccc([N+](=O)[O-])s2)nc(N2CCN(c3ccccc3)CC2)n1`, the GI50 in assay [1] was 22.2 µM; in assay [2], 14.6 µM; in [3] it was 19.5 µM; in [4], 23.1 µM; in assay [5], 16 µM; in assay [6], 19 µM. The GI50 is 40.6 µM in assay [7], 20 µM in assay [8], 14.3 µM in [9] and 21.6 µM in assay [10]. Also, the TGI in assay [1] worked out at 44.8 µM; in assay [2] it was 28.3 µM; in assay [3] it was 39.3 µM; in [4], 75.3 µM; in assay [5], 31.5 µM; in assay [6], 35.9 µM. Moreover, the TGI in assay [7] was over 100 µM; in [8] it was 58.3 µM; in assay [9], 34.5 µM; in assay [10], 56 µM.
`CCOC(OC(C)=O)[C@@H]1C=C[C@H](C)N(c2ccc([N+](=O)[O-])cc2)O1` (some centres not stated): the TGI in [1] was 26.3 µM; in assay [2], 6.77 µM; in assay [3], 9.44 µM; in assay [4] it was 5.49 µM; in [5] it was 8.97 µM; in [6], 15.7 µM. The TGI was 15.4 µM in assay [7], 27.4 µM in [8], 22.3 µM in [9] and 9 µM in [10].
With `COc1c/c(=C2\C=c3ccccc3=N2)[nH]/c1=C\c1[nH]c(C)cc1C`, the GI50 is 0.185 µM in [1]; under 0.0225 µM in assay [2]; 0.64 µM in assay [3]; under 0.0203 µM in assay [4]; 0.493 µM in [5]; under 0.0109 µM in assay [6]. In addition, the GI50 in assay [7] is 0.0638 µM; in assay [8], 0.034 µM; in [9], 0.0782 µM; in assay [10] it was under 0.0337 µM. In addition, the TGI is 33.7 µM in assay [1]; 4.33 µM in [2]; over 31.9 µM in [3]; over 41.9 µM in assay [5]; 0.202 µM in assay [6]; 4.83 µM in [7]. The TGI in assay [8] was found to be 0.593 µM; in assay [9], 59.5 µM; in assay [10] it was 6.28 µM.
For the compound `O=C(C(=O)c1cc2ccccc2[nH]1)c1cc2ccccc2[nH]1`, the TGI in assay [1] is over 347 µM; in assay [2] it was over 347 µM; in assay [3], over 347 µM; in assay [4], over 347 µM; in [5], 114 µM; in assay [6] it was 95.7 µM. In addition, the TGI in [7] was 299 µM; in [8] it was over 347 µM; in assay [9] it was over 347 µM; in [10], over 347 µM.
On to `Cc1c(-c2cnccn2)ssc1=S`, for which the TGI in assay [1] is over 100 µM; in [2] it was over 100 µM; in assay [3], over 100 µM; in assay [4] it was over 100 µM; in assay [5] it was over 89.8 µM; in assay [6] it was over 100 µM. For the same compound, the TGI in assay [7] was over 100 µM; in assay [8], over 95.1 µM; in [9], over 100 µM; in [10] it was over 100 µM.
`CC(C)C[C@H](NC(=O)CNC(=O)c1cc(Cl)ccc1Cl)B(O)O`: the GI50 in [1] is 0.0199 µM; in assay [2] it was 0.0272 µM; in assay [3] it was 0.0202 µM; in [4], 0.0187 µM; in assay [5], 0.0164 µM; in [6], under 0.0141 µM. For the same compound, the GI50 in assay [7] was 0.061 µM; in assay [8], 0.0252 µM; in [9], 0.0442 µM; in assay [10], 0.0504 µM. The TGI in [1] was found to be 0.0436 µM; in [4] it was 0.0797 µM; in assay [5], 0.0414 µM; in assay [6] it was 0.0292 µM; in assay [7], 5.45 µM; in assay [8], 0.1 µM. The results for the TGI in [9] and in assay [10] were 0.39 µM and 2.81 µM, respectively.
In the case of `CCC[C@H]1O[C@@H]2CC(=O)O[C@@H]2C2=C1C(=O)C=CC2=O`, the TGI was over 57 µM in [1]; 32.4 µM in assay [2]; 32.8 µM in [3]; 8.98 µM in assay [4]; 4.68 µM in assay [5]; 28.5 µM in [6]. Besides, the TGI in assay [7] was 29.9 µM; in assay [8], 55.8 µM; in assay [9] it was 32.6 µM; in [10] it was over 53.7 µM.
Turning to `N#C/C(=C\c1cc(O)cc(O)c1)C(N)=O`, the TGI in assay [1] is over 100 µM; in assay [2] it was over 100 µM; in assay [3] it was over 100 µM; in assay [4] it was over 100 µM; in assay [5], 66.2 µM; in assay [6], over 100 µM. The TGI in [7], in [8], in assay [9] and in [10] was over 100 µM in each case.
